Data as given in patent US4230719A, “Novel 2-[4-(3-methyl-2-thienyl)phenyl]propionic acid and pharmaceutically acceptable salt thereof and method for treating symptoms of inflammation and pain” (Toyama Chemical Co., Ltd., priority 1977, dated 1980).

Experiments:
[1] = test system: gastric mucosa and intestine; assay: Test for ulcerogenic action (i), single dose, fasted rats; assay type: in vivo; details: for Gastric glandular score: 18 hours, score 0 (no lesion) to 4 (many large ulcers or perforation)
Description: (§1) (4) Test for ulcerogenic action
(§2) After 18 hours, the rats were killed by suffocation with chloroform and their stomachs were excised. After having been filled with 5 ml of 1% formalin to fix the gastric mucosa, each stomach was incised along the greater curvature to inspect grossly the extent of injury of the gastric mucosa. The extent of injury was scored as follows: 0, no lesion; 1, petechia or erosion; 2, 1-5 small ulcers; 3, many small ulcers; 4, many large ulcers or perforation. The intestinal injury was evaluated based on the incidence of erosion.

[2] = as above; assay type: in vivo; details: rat, in vivo, po
Description: as §1, §2

[3] = test system: gastric mucosa and intestine; assay: Test for ulcerogenic action (ii), three doses, rats on normal meal; assay type: in vivo, rat (Donryu strain, male); set-up: scale not given here
Description: (ii) In the same manner as in (i), the test compound was orally administered to each Donryu strain male rat (weighing about 180 g; 10 rats per group) which had received normal meal. The second dose was administered after 8 hours and the third dose after 16 hours from the second dose. Five hours after the last administration, the rats were treated in the same manner as in (i). The gastric mucosa injury and the intestinal injury were scored in the same manner as in (i).

[4] = in vivo; details: rat, po
[5] = test system: Adjuvant arthritis; assay: Adjuvant arthritis; assay type: in vivo, rat (Sprague-Dawley strain, male); details: 1 mg/kg p.o./day, mean during one week
Description: A suspension containing 6 mg/ml of killed and dried Mycobacterium butyricum in liquid paraffin was subcutaneously injected into the subplantar region of the left hind paw of Sprague-Dawley strain male rats (weighing 180 to 200 g) in a proportion of 0.1 ml/rat. After 14 days, the rats having inflammatory paws of similar volumes were selected and the test compound was orally administered to the rats repeatedly at the rate shown in Table 4 during one week and the mean inhibitory percent of swelling during one week was determined.

[6] = test system: phenylbenzoquinone writhing; assay: Analgesic activity, phenylbenzoquinone method in mouse; assay type: in vivo, mouse (ddY strain, male); details: for Frequency of writhing, mean ± S.E.: during 10 minutes
Description: (i) Phenylbenzoquinone method in mouse
The test compound was orally administered to each ddY strain male mouse (weighing 22±2 g; 8 mice per group). […] The frequency of writhing during 10 minutes from 5-minutes after the injection of phenylbenzoquinone was measured and compared with that of a control group to which a 0.5% Tween 80 solution was administered. The percent inhibition was calculated by the following equation: [formula]

[7] = test system: Carrageenin-induced edema; assay: Carrageenin-induced edema; assay type: in vivo, rat (Donryu strain, male); details: Rattus norvegicus, po, mean in 5 hours, read-out: Inhibitory percent of swelling
Description: (iii) Carrageenin-induced edema
Each of the 6 Donryu strain male rats per group (each weighing about 140 g), which had been fasted overnight, was orally loaded with 4 ml of water and, after 30 minutes, the test compound was orally administered thereto. Thirty minutes thereafter, a 1%(Wt/V) solution of carrageenin in physiological saline was subcutaneously injected into the subplantar region of the left hind paw. At a time interval of one hour, starting from the end of the first hour till the end of the fifth hour after injection of carrageenin, the paw volume was measured by means of a manometer and pressure transducer. By comparison with the percent increase in swelling of the control group of rats to which a 0.5%(V/V) solution of Tween 80 had been administered, the mean inhibitory percent in 5 hours of swelling was calculated by the following equation: [formula]

[8] = test system: Vascular permeability; assay: Vascular permeability in mice (Whittle's method); assay type: in vivo, mouse (ddY strain, male); details: for Inhibition: dye leakage
Description: (i) Vascular permeability in mice (Whittle's method)
The test compound was orally administered to each ddY strain male mouse (weighing each about 20 g). After 20 minutes, 0.1 ml/10 g of a 4%(Wt/V) solution of Pontamine Sky Blue in physiological saline was intravenously injected and 10 minutes thereafter 0.1 ml/10 g of a 0.7%(V/V) solution of acetic acid in physiological saline was injected intraperitoneally. After 30 minutes, the mice were killed by suffocation with chloroform. After immediate laparotomy, the dye leaked into the peritoneal cavity was washed out with distilled water. The washings were made up with water to 30 ml and the absorbance at 620 mμ was measured. The amount of leaked dye per 20 g of mouse weight was compared.

[9] = test system: Vascular permeability; assay: Vascular permeability in rat (Whittle's method); assay type: in vivo, rat (Wistar strain, male)
Description: (ii) Vascular permeability in rat (Whittle's method)
The test compound was orally administered to each Wistar strain male rat (weighing about 150 g) which had been fasted overnight. After 55 minutes, 0.5 ml of a 0.5% Evans Blue solution was intravenously injected. Five minutes thereafter, 0.2 ml/100 g of a 3%(V/V) acetic acid solution was intraperitoneally injected. After 60 minutes from the injection of the acetic acid solution, the rats were killed by suffocation with chloroform. After immediate laparotomy, the dye leaked into the peritoneal cavity was washed out with physiological saline. The washings were made up with the saline to 30 ml and the absorbance at 640 mμ was measured to examine the effect of the test compounds by comparing the amounts of leaked dye per rat with one another.

[10] = test system: pain threshold (brewer's yeast, hind paw); assay: Analgesic activity, Randall-Selitto method in rat; assay type: in vivo, rat (Wistar strain, male); details: for Inhibition: 100% = pain threshold raised by 150 g
Description: (ii) Randall-Selitto method in rat
After one hour, the test compound was orally administered. One hour thereafter, the pain threshold value was measured four times at a time interval of one hour. The mean value of four values obtained was taken as the pain threshold value of each group of rats. The activity of the drug was assumed to be 100% when the pain threshold value was raised by 150 g.

## CC(C(=O)O)c1ccc(-c2cccs2)cc1 (centres unmarked) [Compound C2]
[1]; 10 mg/kg p.o.
  Intestine erosion incidence: 1/7
  Gastric glandular score: 1.11 ± 0.21
[1]; 30 mg/kg p.o.
  Intestine erosion incidence: 1/7
  Gastric glandular score: 1.89 ± 0.24
[1]; 100 mg/kg p.o.
  Intestine erosion incidence: 6/7
  Gastric glandular score: 3.61 ± 0.26
[1]; rat, in vivo
  Death incidence: 3/7
[2]
  TD50 at 18 h: 25 mg/kg
[3]; 5 mg/kg × 3 p.o.
  Score, intestine, mean ± S.E.: 1.07 ± 0.30
  Score, stomach, mean ± S.E.: 1.21 ± 0.18
[3]; 15 mg/kg × 3 p.o.
  Score, intestine, mean ± S.E.: 1.17 ± 0.21
  Score, stomach, mean ± S.E.: 2.33 ± 0.31
[4]
  LD50: 115 mg/kg
[5]
  Inhibitory percent of swelling: 7.2%
[6]; 10 mg/kg p.o.
  Frequency of writhing, mean ± S.E.: 22.3 ± 1.9
[6]; 20 mg/kg p.o.
  Frequency of writhing, mean ± S.E.: 14.6 ± 3.1
[6]; 40 mg/kg p.o.
  Frequency of writhing, mean ± S.E.: 11.1 ± 2.4
[6]; Mus musculus, po, 10 min, writhing, 10 mg/kg p.o., read-out: Inhibition
  inhibition in vivo at 10 mg/kg: 5.5%
[6]; Mus musculus, po, 10 min, writhing, 20 mg/kg p.o., read-out: Inhibition
  inhibition in vivo at 20 mg/kg: 38.1%
[6]; Mus musculus, po, 10 min, writhing, 40 mg/kg p.o.
  inhibition in vivo at 40 mg/kg: 53%
[6]; po, mouse, read-out: ED50
  ED50: 33 mg/kg
[7]; 1 mg/kg p.o.
  inhibition in vivo at 1 mg/kg: 11.8%
[7]; 5 mg/kg p.o.
  inhibition in vivo at 5 mg/kg: 32.9%
[8]; 5 mg/kg p.o.
  Dye leakage (P.S.B.) mean ± S.E.: 314.7 ± 31.3 μg/20g
  Inhibition: 1.9%
[8]; 10 mg/kg p.o.
  Dye leakage (P.S.B.) mean ± S.E.: 264.8 ± 21.8 μg/20g
  Inhibition: 17.5%
[8]; po, mouse, read-out: ED30
  ED30: 19.8 mg/kg
[9]; 1 mg/kg p.o.
  Inhibition: 16.4%
[9]; 5 mg/kg p.o.
  Inhibition: 47.3%
[9]; po, rat, read-out: ED30
  ED30: 2.1 mg/kg
[10]; 1 mg/kg p.o.
  Inhibition: 33.8%
[10]; 5 mg/kg p.o.
  Inhibition: 35.2%
[10]; 25 mg/kg p.o.
  Inhibition: 58.5%
[10]; po, rat, read-out: ED50
  ED50: 14.5 mg/kg
